biological target: Tie-2 kinase (Homo sapiens, UniProt Q02763); experiment: TIE-2 kinase flashplate assay (phosphorylation of poly(Glu, Tyr) with 33P-ATP); format: biochemical; conditions: read-out: Inhibition of TIE-2 IC50
Procedure: The assay determines the inhibiting activity of the substances to be tested in the phosphorylation of the substrate poly(Glu, Tyr) by Tie-2 kinase in the presence of radioactive ^33P-ATP. The phosphorylated substrate binds to the surface of a “flashplate” microtitre plate during the incubation time. After removal of the reaction mixture, the microtitre plate is washed a number of times and the radioactivity on its surface is subsequently measured. An inhibiting effect of the substances to be measured results in lower radioactivity compared with an undisturbed enzymatic reaction.

Tie-2 kinase, sequence (Q02763 23-1124): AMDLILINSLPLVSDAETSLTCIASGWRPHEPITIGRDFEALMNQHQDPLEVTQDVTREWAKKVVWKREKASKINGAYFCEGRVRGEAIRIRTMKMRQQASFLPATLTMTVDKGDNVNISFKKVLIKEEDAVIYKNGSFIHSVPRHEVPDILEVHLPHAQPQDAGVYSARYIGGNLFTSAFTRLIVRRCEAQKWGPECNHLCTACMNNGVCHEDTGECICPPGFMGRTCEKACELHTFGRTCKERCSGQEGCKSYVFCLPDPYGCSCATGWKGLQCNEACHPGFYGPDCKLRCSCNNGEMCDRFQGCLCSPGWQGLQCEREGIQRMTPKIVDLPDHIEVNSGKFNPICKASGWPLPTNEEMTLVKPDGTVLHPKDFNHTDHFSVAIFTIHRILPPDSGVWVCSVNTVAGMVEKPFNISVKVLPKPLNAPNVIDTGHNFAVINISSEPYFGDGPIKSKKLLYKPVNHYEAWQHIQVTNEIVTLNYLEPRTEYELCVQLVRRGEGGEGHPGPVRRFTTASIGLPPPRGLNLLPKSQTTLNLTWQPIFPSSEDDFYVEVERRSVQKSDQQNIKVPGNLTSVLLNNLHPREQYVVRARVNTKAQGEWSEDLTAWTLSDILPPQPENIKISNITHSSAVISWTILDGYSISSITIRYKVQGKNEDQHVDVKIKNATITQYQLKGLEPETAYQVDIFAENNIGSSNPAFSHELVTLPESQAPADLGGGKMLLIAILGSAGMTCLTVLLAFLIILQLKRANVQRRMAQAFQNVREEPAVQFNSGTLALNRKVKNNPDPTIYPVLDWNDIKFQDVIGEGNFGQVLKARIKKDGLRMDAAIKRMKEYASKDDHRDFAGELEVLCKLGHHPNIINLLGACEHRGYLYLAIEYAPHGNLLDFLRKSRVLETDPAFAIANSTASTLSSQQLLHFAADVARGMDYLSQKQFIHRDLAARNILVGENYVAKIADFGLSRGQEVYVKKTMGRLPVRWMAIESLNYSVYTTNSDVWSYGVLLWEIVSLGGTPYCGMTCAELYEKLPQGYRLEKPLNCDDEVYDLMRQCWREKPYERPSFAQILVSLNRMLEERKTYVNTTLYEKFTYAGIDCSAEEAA

IC50	SMILES
390 nM	Cc1cc(Oc2ccc(Nc3nc4c(Br)cc(C(F)(F)F)cc4[nH]3)cc2)c(C)c2sc(N)nc12 [No. 31]
250 nM	FC(F)(F)c1cc(Cl)c2nc(Nc3ccc(Oc4ccc5nsnc5c4)cc3)[nH]c2c1 [No. 2]
220 nM	FC(F)(F)c1cc(Br)c2nc(Nc3ccc(Oc4ccc5nsnc5c4)cc3)[nH]c2c1 [A1, [4-(benzo-1,2,5-thiadiazol-5-yloxy)phenyl](4-bromo-6-trifluoromethyl-1H-benzimidazol-2-yl)amine]
320 nM	Nc1nc2ccc(Oc3ccc(Nc4nc5cc(C(F)(F)F)cc(Cl)c5[nH]4)cc3)cc2s1 [No. 38]

From patent US20070021456A1, “Aminobenzimidazole derivatives” (MERCK PATENT GMBH, priority 2003, published 2007)
